Measurements published in ChEMBL document CHEMBL1697731, “Cheminformatics analysis of assertions mined from literature that describe drug-induced liver injury in different species” (Chem Res Toxicol, 2010).
Where a SMILES comes first, the peptide text is derived from it. Bridges are numbered along the chain shown (N, C = ends). [ ]: non-standard residue; d: D form. The star is where a group is joined. Threoninol(2S,3R) = C[C@@H](O)[C@H](CO)N*

Experiments:
Hepatotoxicity [1] = experiment: Literature-mined compound from Fourches et al multi-species drug-induced liver injury (DILI) dataset, effect in rodents; conditions: rodentia
Hepatotoxicity [2] = experiment: Literature-mined compound from Fourches et al multi-species drug-induced liver injury (DILI) dataset, effect in non-rodents
Hepatotoxicity [3] = experiment: Literature-mined compound from Fourches et al multi-species drug-induced liver injury (DILI) dataset, effect in humans; conditions: human

SMILES	Hepatotoxicity (Hepatotoxicity [1])	Hepatotoxicity (Hepatotoxicity [2])	Hepatotoxicity (Hepatotoxicity [3])	Hepatotoxicity (Hepatotoxicity [1]; Liver)	Hepatotoxicity (Hepatotoxicity [2]; Liver)	Hepatotoxicity (Hepatotoxicity [3]; Liver)
COC(=O)C1=C(C)NC(C)=C(C(=O)OC)C1c1ccccc1[N+](=O)[O-] [NIFEDIPINE]	drug-induced liver injury reported	drug-induced liver injury reported	drug-induced liver injury reported	–	–	–
CCCCCCC(=O)O[C@H]1CC[C@H]2[C@@H]3CCC4=CC(=O)CC[C@]4(C)[C@H]3CC[C@]12C [TESTOSTERONE ENANTHATE]	drug-induced liver injury reported	no drug-induced liver injury reported	no drug-induced liver injury reported	–	–	–
C[C@@H](O)[C@H](CO)NC(=O)[C@@H]1CSSC[C@H](NC(=O)[C@H](N)Cc2ccccc2)C(=O)N[C@@H](Cc2ccccc2)C(=O)N[C@H](Cc2c[nH]c3ccccc23)C(=O)N[C@@H](CCCCN)C(=O)N[C@@H]([C@@H](C)O)C(=O)N1 (H-[dF]CF[dW]KTC-{Threoninol(2S,3R)}; disulfide 2-7)	drug-induced liver injury reported	no drug-induced liver injury reported	drug-induced liver injury reported	–	–	–
C1CNCCN1 [PIPERAZINE]	–	–	–	drug-induced liver injury reported	no drug-induced liver injury reported	no drug-induced liver injury reported
CC(=O)OCC(=O)[C@@]1(O)CC[C@H]2[C@@H]3CCC4=CC(=O)CC[C@]4(C)[C@H]3[C@@H](O)C[C@@]21C [HYDROCORTISONE ACETATE]	drug-induced liver injury reported	no drug-induced liver injury reported	no drug-induced liver injury reported	–	–	–
CCC1=C(C[C@H]2NCCc3cc(OC)c(OC)cc32)C[C@H]2c3cc(OC)c(OC)cc3CCN2C1 [DEHYDROEMETINE]	drug-induced liver injury reported	no drug-induced liver injury reported	no drug-induced liver injury reported	–	–	–
CCC1(c2ccccc2)C(=O)NC(=O)NC1=O [PHENOBARBITAL]	drug-induced liver injury reported	drug-induced liver injury reported	drug-induced liver injury reported	–	–	–
CO[C@]12CC[C@@]3(C[C@@H]1[C@](C)(O)C(C)(C)C)[C@H]1Cc4ccc(O)c5c4[C@@]3(CCN1CC1CC1)[C@H]2O5 [BUPRENORPHINE]	drug-induced liver injury reported	no drug-induced liver injury reported	drug-induced liver injury reported	–	–	–
COC(=O)[C@@H]1[C@H]2C[C@H]3c4[nH]c5ccccc5c4CCN3C[C@@H]2CC[C@@H]1O [YOHIMBINE]	drug-induced liver injury reported	no drug-induced liver injury reported	no drug-induced liver injury reported	–	–	–
CCC(=C(c1ccc(O)cc1)c1ccc(OCCN(C)C)cc1)c1ccccc1	drug-induced liver injury reported	no drug-induced liver injury reported	drug-induced liver injury reported	–	–	–
CCOC(=O)[C@H](CCc1ccccc1)N[C@@H](C)C(=O)N1[C@H](C(=O)O)C[C@@H]2CCC[C@@H]21	drug-induced liver injury reported	no drug-induced liver injury reported	drug-induced liver injury reported	–	–	–
CCCCC1(CC)C(=O)NC(=O)NC1=O [BUTETHAL]	drug-induced liver injury reported	no drug-induced liver injury reported	no drug-induced liver injury reported	–	–	–
CO[C@H]1C[C@@H]2CC[C@@H](C)[C@@](O)(O2)C(=O)C(=O)N2CCCC[C@H]2C(=O)O[C@H]([C@H](C)C[C@@H]2CC[C@@H](O)[C@H](OC)C2)CC(=O)[C@H](C)/C=C(\C)[C@@H](O)[C@@H](OC)C(=O)[C@H](C)C[C@H](C)/C=C/C=C/C=C/1C [SIROLIMUS]	drug-induced liver injury reported	no drug-induced liver injury reported	drug-induced liver injury reported	–	–	–
CC1(C)[C@H](C(=O)O)N2C(=O)C[C@H]2S1(=O)=O [SULBACTAM]	no drug-induced liver injury reported	no drug-induced liver injury reported	drug-induced liver injury reported	–	–	–
CC1=C(/C=C/C(C)=C/C=C/C(C)=C\C(=O)O)C(C)(C)CCC1 [ISOTRETINOIN]	no drug-induced liver injury reported	no drug-induced liver injury reported	drug-induced liver injury reported	–	–	–
CCC[C@H](N[C@@H](C)C(=O)N1[C@H](C(=O)O)C[C@@H]2CCCC[C@@H]21)C(=O)OCC [PERINDOPRIL]	drug-induced liver injury reported	no drug-induced liver injury reported	drug-induced liver injury reported	–	–	–
CC1(C)C(/C=C/C=C/C=C/C=C2/N(CCCCS(=O)(=O)[O-])c3ccc4ccccc4c3C2(C)C)=[N+](CCCCS(=O)(=O)[O-])c2ccc3ccccc3c21.[Na+] [INDOCYANINE GREEN]	drug-induced liver injury reported	no drug-induced liver injury reported	no drug-induced liver injury reported	–	–	–
Cc1ccc(-c2nc3ccc(C)cn3c2CC(=O)N(C)C)cc1 [ZOLPIDEM]	no drug-induced liver injury reported	no drug-induced liver injury reported	drug-induced liver injury reported	–	–	–

SMILES	Hepatotoxicity (Hepatotoxicity [1])	Hepatotoxicity (Hepatotoxicity [2])	Hepatotoxicity (Hepatotoxicity [3])	Hepatotoxicity (Hepatotoxicity [1]; Liver)	Hepatotoxicity (Hepatotoxicity [2]; Liver)	Hepatotoxicity (Hepatotoxicity [3]; Liver)
CN(C)CCC=C1c2ccccc2COc2ccccc21 [DOXEPIN]	no drug-induced liver injury reported	no drug-induced liver injury reported	drug-induced liver injury reported	–	–	–
CCN1CC(CCN2CCOCC2)C(c2ccccc2)(c2ccccc2)C1=O.Cl (stereo not given)	no drug-induced liver injury reported	no drug-induced liver injury reported	drug-induced liver injury reported	–	–	–
Oc1cc(Cl)ccc1Oc1ccc(Cl)cc1Cl [TRICLOSAN]	drug-induced liver injury reported	no drug-induced liver injury reported	no drug-induced liver injury reported	–	–	–
CC(C)c1cc(C(C)C)c(CC(=O)NS(=O)(=O)Oc2c(C(C)C)cccc2C(C)C)c(C(C)C)c1 [AVASIMIBE]	drug-induced liver injury reported	no drug-induced liver injury reported	drug-induced liver injury reported	–	–	–
Cc1ccc(C(C)C)cc2c(C)ccc1-2 [GUAIAZULEN]	drug-induced liver injury reported	no drug-induced liver injury reported	no drug-induced liver injury reported	–	–	–
CCOC(=O)[C@@]1(CCCCCCOc2ccc(Cl)cc2)CO1 [ETOMOXIR]	drug-induced liver injury reported	drug-induced liver injury reported	drug-induced liver injury reported	–	–	–
O=C1C(CC[S+]([O-])c2ccccc2)C(=O)N(c2ccccc2)N1c1ccccc1 (stereo not given) [SULFINPYRAZONE]	no drug-induced liver injury reported	no drug-induced liver injury reported	drug-induced liver injury reported	–	–	–
C#CC1(O)CC[C@H]2[C@@H]3CCC4=CC(=O)CC[C@@H]4[C@H]3CC[C@@]21CC (stereo not given in full) [NORGESTREL]	–	–	–	drug-induced liver injury reported	no drug-induced liver injury reported	drug-induced liver injury reported
NNc1nncc2ccccc12 [HYDRALAZINE]	–	–	–	drug-induced liver injury reported	drug-induced liver injury reported	drug-induced liver injury reported
CC[C@@H]1C(=O)OC[C@@H]1Cc1cncn1C [PILOCARPINE]	drug-induced liver injury reported	no drug-induced liver injury reported	no drug-induced liver injury reported	–	–	–
CC1=C(CC(=O)O)c2cc(F)ccc2/C1=C\c1ccc(S(C)(=O)=O)cc1 [EXISULIND]	no drug-induced liver injury reported	no drug-induced liver injury reported	drug-induced liver injury reported	–	–	–
CCOC(=O)C1=C(COCCN)NC(C)=C(C(=O)OC)C1c1ccccc1Cl (stereo not given) [AMLODIPINE]	drug-induced liver injury reported	no drug-induced liver injury reported	no drug-induced liver injury reported	–	–	–
C[C@]12C=CC(=O)C=C1CC[C@@H]1[C@@H]2[C@@H](O)C[C@@]2(C)[C@H]1CC[C@]2(O)C(=O)CO [PREDNISOLONE]	drug-induced liver injury reported	no drug-induced liver injury reported	drug-induced liver injury reported	–	–	–
CC(O)C(=O)O (stereo not given) [LACTIC ACID]	drug-induced liver injury reported	drug-induced liver injury reported	drug-induced liver injury reported	–	–	–
Cc1ncsc1CCCl [CLOMETHIAZOLE]	drug-induced liver injury reported	no drug-induced liver injury reported	drug-induced liver injury reported	–	–	–
O=C(O)Cc1ccccc1 [PHENYLACETIC ACID]	drug-induced liver injury reported	no drug-induced liver injury reported	no drug-induced liver injury reported	–	–	–
CC(=O)O[C@H]1C(=O)[C@@]2(C)[C@H]([C@H](OC(=O)c3ccccc3)[C@]3(O)C[C@H](OC(=O)[C@H](O)[C@@H](NC(=O)c4ccccc4)c4ccccc4)C(C)=C1C3(C)C)[C@]1(OC(C)=O)CO[C@@H]1C[C@@H]2O [PACLITAXEL]	–	–	–	drug-induced liver injury reported	no drug-induced liver injury reported	drug-induced liver injury reported
